Measured values: patent US20060041013A1, “Alanosine formulations and methods of use” (priority 2004, published 2006)
Where “and” joins values, the source holds several entries; their conditions need not be identical. Equal values may be shown once.

Tests used:
[1] = Temperature and pH effects on stability (5 days at 5° C. or 80° C.); format: physicochemical; settings: for osmolality: about 20 mg/mL
Method: Stability studies were then performed at different pHs. […] The pH of the solution was then adjusted in increments of 0.5 using 1N NaOH. Stability measurements of two duplicate samples were taken at each increment, beginning at pH 6.5 up through pH 9.0, and one sample was taken at pH 12.2. One set of samples was stored at 5° C., the other at 80° C., for five days, after which they were analyzed for pH, physical appearance, osmolality, and impurities. […] Here, impurities were determined by reverse phase HPLC as described herein.

A549 NSCLC xenografts = experiment: MTAP-negative A549 NSCLC xenografts in SCID mice; format: in vivo; settings: 60 days monitoring, doses as administered
BX-PC3 = experiment: Docetaxel, 5-FU, SDX-102 alone or combined, MTT/MTS cytotoxicity (Example 4); format: cell-based; settings: Homo sapiens, BXPC-3; BX-PC3, Pancreatic, single agent, MTT 72 hours
PANC-1 = experiment: as above; format: cell-based; settings: Homo sapiens; PANC-1, Pancreatic, single agent, MTT 72 hours
NCI-H2452 [2] = experiment: Cell viability MTT assay (Example 3); format: cell-based; settings: Homo sapiens, 72 h; NCI-H2452, Mesothelioma, MTAP Negative; 3 days
A-427 [3] = experiment: Cell viability MTT assay (Example 3); format: cell-based; settings: Homo sapiens, 72 h; A-427, NSCLC, MTAP Positive; 3 days
NCI-H292 = experiment: Docetaxel, 5-FU, SDX-102 alone or combined, MTT/MTS cytotoxicity (Example 4); format: cell-based; settings: Homo sapiens; NCI-H292, NSCLC, single agent, MTT 72 hours
HS-766T [4] = experiment: Intracellular ATP levels (Cell-Titer Glow); format: cell-based; settings: Hs766T, 72 h; HS-766T, Pancreatic, MTAP Positive; 3 day treatment
Method: (§1) MTAP status was determined using immunoblot analyses and correlated with the ability of an MTA analog to rescue ATP levels in cell lines treated with SDX-102. ATP levels were measured using Cell-Titer Glow™ (Promega) after a 3 day treatment with titrated concentrations of either SDX-102 or pemetrexed.
(§2) ATP values measured using Cell-Titer Glow™ (Promega) after 3 days exposure to the MTA analog. Solid lines in FIG. 8 represent the effect of titrations of SDX-102 from 0.05 μM-20 μM (FIG. 8A) or pemetrexed from 0.01 μM-5 μM (FIG. 8B) on cellular ATP levels. The dotted lines represent the effect of a single concentration of SDX-102 (10 μM) or pemetrexed (2.5 μM) with a titration of an MTA analog from 0.1 μM-50 μM.

A-427 [5] = experiment: Intracellular ATP levels (Cell-Titer Glow); format: cell-based; settings: Homo sapiens, 72 h; A-427, NSCLC, MTAP Positive; 3 day treatment
Method: as §1, §2

NCI-H226 = experiment: Intracellular ATP levels (Cell-Titer Glow); format: cell-based; settings: Homo sapiens, 72 h; NCI-H226, Mesothelioma, MTAP Positive; 3 day treatment
Method: as §1, §2

H-Meso-1 = experiment: Mesothelioma xenograft model (H-Meso-1) in SCID mice; format: in vivo; settings: thirty-one days following treatment; docetaxel 10 mg/kg intraperitoneally daily Mon-Fri, SDX-102 50 mg/kg osmotic pump; start 100 mm^3; control 1272
[6] = Chirality analysis: conversion of L-alanosine to D-alanosine (chiral HPLC); format: physicochemical
Method: The following HPLC procedure was used to separate the L- and D-enantiomers of alanosine. The HPLC system (Agilent 1100) employed a 4.6 mm×150 mm column (Phenomenex) containing 5 μm particles (Chirex 3126, (D)-penicillamine) as the stationary phase. The system was equipped with both UV and polarimeter detectors. The UV detector was set to 254 nm to monitor products being eluted from the column, while the polarimeter detector was set to 670 nm. The eluent was 2 mM CuSO4/MeOH 70-30. The flow rate was 1.7 mL/min. at a pressure of 200 bar. For each run, a 100 μL sample containing 0.5 mg/mL in 2 mM CuSO4 was injected onto the column. […] To reverse the elution order, (L)-penicillamine could be used.

A-594 = experiment: Intracellular ATP levels (Cell-Titer Glow); format: cell-based; settings: 72 h; A-594, NSCLC, MTAP Negative; 3 day treatment
Method: as §1

BxPC3 [7] = experiment: Intracellular ATP levels (Cell-Titer Glow); format: cell-based; settings: Homo sapiens, BXPC-3, 72 h; BxPC3, Pancreatic, MTAP Negative; 3 day treatment
Method: as §1

NCI-H2452 [8] = experiment: Intracellular ATP levels (Cell-Titer Glow); format: cell-based; settings: Homo sapiens, 72 h; NCI-H2452, Mesothelioma, MTAP Negative; 3 day treatment; read-out: ATP IC50
Method: as §1

physchem = format: physicochemical
Method: The solution was stirred on a stir plate at room temperature and the pH was adjusted by adding 20 microliter (μL) aliquots of 1N NaOH. After the addition of each aliquot, the resulting pH was measured potentiometrically and the results were recorded. The results of the titration appear in FIG. 1. The solution was also visually inspected during the course of the titration experiment to observe full dissolution of the alanosine.

A549 = experiment: Docetaxel, 5-FU, SDX-102 alone or combined, MTT/MTS cytotoxicity (Example 4); format: cell-based; settings: Homo sapiens; A549, NSCLC, single agent, MTT 72 hours
[9] = 6 months, 20 mg/mL, pH 8.5
Method: Each solution was divided into 5 mL aliquots and placed in 6 mL vials sealed with Teflon-faced screw caps (VWR Scientific, catalogue No. 66011-880). Vials of each solution were placed at five different temperatures, −20° C., 5° C., 25° C., 40° C., and 60° C., and aliquots were analyzed at various time points to determine stability.

HS-766T [10] = experiment: Cell viability MTT assay (Example 3); format: cell-based; settings: Hs766T, 72 h, Pancreatic, MTAP Positive, 3 days
BxPC3 [11] = experiment: Cell viability MTT assay (Example 3); format: cell-based; settings: Homo sapiens, BXPC-3, 72 h; BxPC3, Pancreatic, MTAP Negative; 3 days
[12] = t1 yr., pH 7.5, 25° C., listed as L
[13] = t1 yr., pH 8.5, 25° C., listed as L
[14] = t6 mo., pH 8.5, 25° C., listed as L

**Q.** Which results are given for `NC(CN(O)N=O)C(=O)O` [L-alanosine, L(−)-2-amino-3-nitrosohydroxylaminopropionic acid]?
**A.** impurities as a function of pH ([1]; 80° C. five days, pH 6.5-12.2, HPLC): inverse relationship between the amount of impurities and pH; osmolality ([1]; pH 6.5, stored at 5° C. five days): 225 mOsm; osmolality ([1]; pH 6.5, stored at 80° C. five days): 247 mOsm; osmolality ([1]; pH 8.0, stored at 5° C. five days): 272 mOsm; osmolality ([1]; pH 8.0, stored at 80° C. five days): 273 mOsm; tumor growth inhibition (A549 NSCLC xenografts): did not induce tumor growth inhibition; IC50 (BX-PC3): 3000 ± 1000 nM; IC50 (PANC-1): 10 ± 5 µM; IC50 (NCI-H2452 [2]): 500 nM; IC50 (A-427 [3]): 3.3 µM; IC50 (NCI-H292): 200 ± 60 nM; IC50 (HS-766T [4]): 2000 nM; IC50 (A-427 [5]): 1500 nM; IC50 (NCI-H226): 400 nM; mean tumor volume (H-Meso-1): 1035 mm^3; conversion to D-alanosine ([6]; after one year at 5° C., pH 7.5 or 8.5): no conversion to D-alanosine; conversion to D-alanosine at pH 8.5 compared to pH 7.5 ([6]; storage at 25° C.): 5-10 times; % Total Peak Area L ([6]; t0): 100%; % Total Peak Area L ([6]; t1 yr., pH 7.5, 5° C.): 100%; % Total Peak Area D [6, 12]: 0.99% and 0.78%; % Total Peak Area L [6, 12]: 99.01% and 99.22%; % Total Peak Area L ([6]; t1 yr., pH 8.5, 5° C.): 100%; % Total Peak Area D [6, 13]: 4.45% and 4.56%; % Total Peak Area L [6, 13]: 95.55% and 95.44%; % Total Peak Area L ([6]; t6 mo., pH 8.5, 5° C.): 100%; % Total Peak Area D [6, 14]: 2.03% and 2.04%; % Total Peak Area L [6, 14]: 97.97% and 97.96%; IC50 (A-594): 300 nM; IC50 (BxPC3 [7]): 600 nM; IC50 (NCI-H2452 [8]): 400 nM; solubility in water (physchem): poor solubility; pH that must be exceeded for full dissolution (physchem; free base, approx. 20 mg/mL in water): exceeded 6.2; pKa (physchem; pKa (first)): ~5.5; pKa (physchem; pKa (second)): ~8.5; IC50 (A549): 300 ± 100 nM; stability versus freshly reconstituted lyophilizate (HPLC) [9]: as stable after storage at 5 °C for six months as a composition prepared by freshly reconstituting lyophilized L-alanosine; IC50 (HS-766T [10]): > 20 µM; IC50 (BxPC3 [11]): 6 µM
